Measurements taken from patent publication US20210338647A1, “Combination of Acetylcholinesterase Inhibitor and 5-HT4 Receptor Agonist As Neuroprotective Agent In the Treatment of Neurodegenerative Diseases” (UNIVERSITE DE CAEN NORMANDIE, priority 2018, published 2021).

Experiments:
5XFAD mice [1] = assay: Astrogliosis (GFAP staining) in brain sections of 5XFAD mice; assay type: in vivo, mouse; details: 1 mg/kg twice a week for 3 months, versus controls
Experimental: (§1) 5XFAD mice received chronic treatments with drugs or vehicle according to 2 different protocols. In each experiment, drugs or vehicle solution were administered i.p. twice a week (1 mg/kg). In “Protocol 1”, mice (n=6-7 mice per group) were treated with compounds for two months, from 2 to 4 months of age. In “Protocol 2”, mice (n=7) were treated with compounds for three months, from 1 month to 4 months of age. At the end of each protocol, mice were anesthetized with a mixture of 100 mg/kg ketamine and 10 mg/kg xylazine in saline solution and perfused transcardially with PBS. Brains were quickly isolated on ice, the olfactory bulbs and cerebellum removed and the two hemispheres divided. One hemisphere was frozen on dry ice and stored at −80° C. for biochemical analysis, while the other was post-fixed in 4% PFA for immunohistochemistry (IHC).
Thirty-micrometer-thick sections were cut using a vibratome (Microm HM 650V, Thermo Scientific, Saint Herblain, France) and stored in cryoprotectant medium at −20° C. For the labeling of amyloid plaques, free-floating tissue sections of frontal cortex, hippocampus and entorhinal cortex (coordinates from the bregma: frontal cortex=1.98 mm, hippocampus=−1.94 mm, entorhinal cortex=−3.08 mm) were extensively washed in PBS and then incubated in blocking solution (PBS; 3% BSA; 0.1% Triton X-100) for 1 h. Sections were stained with Hoechst dye (1:1000, Life Technologies, Saint Aubin, France) for 15 minutes to detect cell nuclei and then with freshly prepared thioflavin T solution (#T3516-5G, Sigma-Aldrich) (final concentration: 0.01 mg/ml in blocking buffer) for 15 minutes. After washing in 70% ethanol for 5 minutes, samples were mounted on poly-lysine slides with coverslips. For GFAP (glial fibrillary acidic protein) staining, free-floating brain sections were blocked as before and incubated with polyclonal rabbit anti-GFAP (1:1000, Z0334, Dako, Les Ullis, France) at 4° C. overnight. After thioflavin T staining and washing with 70% ethanol, the secondary Alexafluor 594 goat anti-rabbit antibody (1:1000, A11012, Life Technologies) was added for 2 h. PBS washes and mounting were performed as described before.
Images were acquired with an Axiolmager Z1 microscope (Carl Zeiss S.A.S., Marly le Roi, France). Analysis of thioflavin T staining was performed blindly and data are presented as the mean number of particles per mm^2 in two to three tissue sections from the same brain area/animal (Image J software). GFAP expression was quantified using Image J software and results are expressed as area fractions.
(§2) 28 female 5XFAD mice (C57BL/6J genetic background) were used in this study. Mice received vehicle or compounds (1 mg/kg) i.p., twice a week for three months, from 1 to 4 months of age.

5XFAD mice [2] = assay: Novel object recognition test in chronically treated 5XFAD mice; assay type: in vivo, mouse; details: 5XFAD females; 1 mg/kg twice a week for 3 months; 24 h interval between training and test
Experimental: as §1, §2

CCCCN1CCC(CCC(=O)c2cc(Cl)c(N)cc2OC)CC1 [RS67333, 1-(4-amino-5-chloro-2-methoxy-phenyl)-3-(1-butyl-4-piperidinyl)-1-propanone]
GFAP staining in frontal cortex (5XFAD mice [1]): not significantly different compared to controls
GFAP staining in hippocampus (5XFAD mice [1]): not significantly different compared to controls
Recognition memory: time exploring novel versus familiar object (NOR test) (5XFAD mice [2]): reverses cognitive impairment
